Reference: ChEMBL document CHEMBL4196086, “Recent advances of imidazole-containing derivatives as anti-tubercular agents” (Eur J Med Chem, 2018)
Converted amounts (≈) assume the structure as drawn.

Legend:
[1] = system: Mycobacterium tuberculosis; test: Antimycobacterial activity against Mycobacterium tuberculosis; assay type: functional
[2] = system: Mycobacterium tuberculosis; test: Antimycobacterial activity against Mycobacterium tuberculosis H37Rv; assay type: functional; details: for MIC: Mycobacterium tuberculosis, H37Rv
[3] = system: Mycobacterium tuberculosis; test: Growth inhibition of Mycobacterium tuberculosis H37Rv at 100 ug/ml relative to control; assay type: functional; details: read-out: GI
[4] = system: Mycobacterium tuberculosis; test: Antimycobacterial activity against non-replicating Mycobacterium tuberculosis; assay type: functional
[5] = system: Mycobacterium tuberculosis; test: Antimycobacterial activity against Mycobacterium tuberculosis H37Rv ATCC 27294 by MABA; assay type: functional
[6] = Selectivity index, ratio of IC50 for African green monkey Vero cells to MIC for Mycobacterium tuberculosis H37Rv ATCC 27294; assay type: toxicity; details: read-out: Selectivity Index
[7] = system: Mycobacterium tuberculosis; test: Antimycobacterial activity against replicating Mycobacterium tuberculosis; assay type: functional
[8] = Inhibition of Mycobacterium tuberculosis IMPDH
[9] = system: Mycolicibacterium smegmatis; test: Antimycobacterial activity against Mycobacterium smegmatis; assay type: functional
[10] = system: Mycolicibacterium fortuitum; test: Antimycobacterial activity against Mycobacterium fortuitum; assay type: functional
[11] = system: Mycobacterium tuberculosis; test: Antimycobacterial activity against Mycobacterium tuberculosis ATCC 27294; assay type: functional
[12] = system: Mycobacterium tuberculosis; test: Antimycobacterial activity against Mycobacterium tuberculosis ATCC 35828; assay type: functional
[13] = system: Mycobacterium tuberculosis; test: Antimycobacterial activity against Mycobacterium tuberculosis ATCC 35820; assay type: functional
[14] = system: Mycobacterium tuberculosis; test: Antimycobacterial activity against Mycobacterium tuberculosis ATCC 35822; assay type: functional
[15] = system: Mycobacterium tuberculosis; test: Antimycobacterial activity against Mycobacterium tuberculosis ATCC 35837; assay type: functional
[16] = system: Mycobacterium tuberculosis; test: Antimycobacterial activity against Mycobacterium tuberculosis H37Rv in logarithmic phase; assay type: functional
[17] = system: Mycobacterium tuberculosis; test: Antimycobacterial activity against Mycobacterium tuberculosis H37Rv in hypoxia-induced latent phase; assay type: functional
[18] = system: Mycobacterium tuberculosis; test: Antimycobacterial activity against Mycobacterium tuberculosis H37Rv ATCC 27294 by serial dilution assay; assay type: functional
[19] = system: Mycobacterium tuberculosis; test: Potency index, ratio of pyrazinamide MIC to compound MIC for Mycobacterium tuberculosis H37Rv; assay type: functional
[20] = system: Mycobacterium tuberculosis; test: Potency index, ratio of streptomycin MIC to compound MIC for Mycobacterium tuberculosis H37Rv; assay type: functional
[21] = system: Mycobacterium tuberculosis; test: Potency index, ratio of isoniazid MIC to compound MIC for Mycobacterium tuberculosis H37Rv; assay type: functional
[22] = system: Mycobacterium tuberculosis; test: Potency index, ratio of ciprofloxacin MIC to compound MIC for Mycobacterium tuberculosis H37Rv; assay type: functional
HEK293 = test: Cytotoxicity against HEK293 cells after 24 hrs by MTT assay; assay type: cell-based; details: Homo sapiens, HEK293, 24 h
[23] = system: Mycobacterium tuberculosis; test: Antimycobacterial activity against Mycobacterium tuberculosis H37Rv after 5 days by MABA; assay type: functional; details: 120 h

O=C1/C(=C\c2ccc(Br)cc2)SC(c2ccc(-n3ccnc3)cc2)N1Nc1ccccc1 (stereo unspecified)
MIC [1]: 14.3 to 49.7 µM (≈ 7.18 to 25 µg/mL)

Fc1cc2nc(Cn3ccnc3)[nH]c2cc1-n1ccnc1
MIC [2]: 12.5 to 100 µg/mL (≈ 44.3 to 354 µM)

Cc1ccc2c(c1)cc(-c1nc(-c3ccccc3)c(-c3ccccc3)n1-c1ccccc1)c1nnnn12
inhibition of growth at 100 µg/mL [3]: 17 to 99%

COc1ccc(-n2c(-c3cc4ccccc4n4nnnc34)nc(-c3ccccc3)c2-c2ccccc2)cc1
inhibition of growth at 100 µg/mL [3]: 17 to 99%

CCc1nc2ccc(C)cc2n1CCCNc1ccc(C)cc1
MIC [4]: 0.056 to 0.88 µM

Cc1ccc(-n2c(-c3cc4cc(C)ccc4n4nnnc34)nc(-c3ccccc3)c2-c2ccccc2)cc1
inhibition of growth at 100 µg/mL [3]: 17 to 99%

CS(=O)(=O)c1nnc(-c2ncc([N+](=O)[O-])[nH]2)s1
MIC [5]: > 6.25 µg/mL
selectivity ratio [6]: 0.3 to 0.6

CCCc1cc(=O)oc2c1c(OC)cc1[nH]c(C(=O)N(C)C)[n+]([O-])c12
MIC [7]: > 50 µg/mL
MIC [4]: > 50 µg/mL

COc1ccc(NC(=O)Cn2c(-c3cscn3)nc3ccccc32)c(OC)c1
IC50 [8]: 3 to 10 µM

C[S+]([O-])c1nnc(-c2ncc([N+](=O)[O-])[nH]2)s1 (stereo unspecified)
MIC [5]: 1.56 µg/mL (≈ 6.02 µM)
selectivity ratio [6]: 0.3 to 0.6

CCc1nc2ccc(C)cc2n1CCCNc1ccc(C)cc1C
MIC [4]: 0.056 to 0.88 µM

Clc1ccc(-n2ncc(C(c3ccccc3)n3ccnc3)c2-c2ccccc2Cl)c(Cl)c1 (stereo unspecified)
MIC [9]: 6.7 to 57.7 µM (≈ 3.21 to 27.7 µg/mL)
MIC [10]: 6.7 to 57.7 µM (≈ 3.21 to 27.7 µg/mL)
MIC [11]: 6.7 to 57.7 µM (≈ 3.21 to 27.7 µg/mL)
MIC [12]: 6.7 to 57.7 µM (≈ 3.21 to 27.7 µg/mL)
MIC [13]: 6.7 to 57.7 µM (≈ 3.21 to 27.7 µg/mL)
MIC [14]: 6.7 to 57.7 µM (≈ 3.21 to 27.7 µg/mL)
MIC [15]: 6.7 to 57.7 µM (≈ 3.21 to 27.7 µg/mL)

COc1ccc(-c2nc3ccc(-c4ccc5nc(-c6ccccc6)[nH]c5c4)cc3[nH]2)cc1
MIC [16]: 0.25 to 1 µg/mL (≈ 0.6 to 2.4 µM)
MIC [17]: 0.25 to 1 µg/mL (≈ 0.6 to 2.4 µM)

CCc1nc2ccc(C)cc2n1CCCNc1ccc(OC)cc1
MIC [4]: 0.056 to 0.88 µM

COc1ccc(-n2c(-c3cc4cc(C)ccc4n4nnnc34)nc(-c3ccccc3)c2-c2ccccc2)cc1
inhibition of growth at 100 µg/mL [3]: 17 to 99%

O=C(Cn1c(-c2cscn2)nc2ccccc21)Nc1ccc([N+](=O)[O-])cc1
IC50 [8]: 3 to 10 µM

Fc1cc2nc(Cn3ccnc3)[nH]c2cc1Oc1ccc(Cl)cc1
MIC [2]: 12.5 to 100 µg/mL (≈ 36.5 to 292 µM)

CCc1nc2ccc(C)cc2n1CCCNc1ccccc1
MIC [4]: 0.056 µM

CCCOc1cccc(NC(=O)Cn2c(-c3cscn3)nc3ccccc32)c1
IC50 [8]: 3 to 10 µM

CCCSc1nnc(-c2ncc([N+](=O)[O-])n2C)s1
MIC [18]: 3.12 µg/mL (≈ 10.9 µM)

CCc1nc2ccc(C)cc2n1CCCSc1ccc(OC)cc1
MIC [4]: 0.056 to 0.88 µM

CCc1nc2ccc(C)cc2n1CCCCSc1ccccc1
MIC [4]: 0.056 to 2.6 µM

CCC[S+]([O-])c1nnc(-c2ncc([N+](=O)[O-])[nH]2)s1 (stereo unspecified)
MIC [5]: 1.56 µg/mL (≈ 5.43 µM)
selectivity ratio [6]: 0.3 to 0.6

CSc1nnc(-c2ncc([N+](=O)[O-])[nH]2)s1
MIC [5]: 3.13 to 6.25 µg/mL (≈ 12.9 to 25.7 µM)

COc1ccc2c(c1)cc(-c1nc(-c3ccccc3)c(-c3ccccc3)n1-c1ccccc1)c1nnnn12
inhibition of growth at 100 µg/mL [3]: 17 to 99%

Cc1ccc(/C=C2/SC(c3ccc(-n4ccnc4)cc3)N(Nc3ccccc3)C2=O)cc1 (stereo unspecified)
MIC [1]: 14.3 to 49.7 µM (≈ 6.26 to 21.8 µg/mL)

CCc1nc2ccc(C)cc2n1CCCCNc1cccc(Cl)c1
MIC [4]: 0.056 to 2.6 µM

CCCc1cc(=O)oc2c1c(OCCN1CCOCC1)cc1[nH]c(C(=O)N(C)C)[n+]([O-])c12
MIC [7]: > 50 µg/mL
MIC [4]: > 50 µg/mL

O=C(Cn1c(-c2cscn2)nc2ccccc21)Nc1ccccc1
IC50 [8]: 3 to 10 µM

CCc1nc2ccc(C)cc2n1CCCCSc1ccc(OC)cc1
MIC [4]: 0.056 to 2.6 µM

Fc1cc2nc(Cn3ccnc3)[nH]c2cc1Cl
MIC [2]: 12.5 to 100 µg/mL (≈ 49.9 to 399 µM)

CCOc1ccc(-c2nc3ccc(-c4ccc5nc(-c6ccc(OCC)cc6)[nH]c5c4)cc3[nH]2)cc1
MIC [16]: 0.5 to 16 µg/mL (≈ 1.05 to 33.7 µM)
MIC [17]: 0.5 to 16 µg/mL (≈ 1.05 to 33.7 µM)

Cn1c(-c2cccc(Cl)c2F)nc2cc(-c3nc(-c4ccc(Cl)cc4)no3)ccc21
Ratio [19]: 2
Ratio [20]: 4
Ratio [21]: 4
Ratio [22]: 2
IC50 (HEK293): > 500 µg/mL
MIC [23]: 1.6 to 25 µg/mL (≈ 3.64 to 56.9 µM)

Nc1ccc(-c2nc3cc(-c4ccc5[nH]c(-c6ccc(N)cc6)nc5c4)ccc3[nH]2)cc1
MIC [16]: 0.5 to 16 µg/mL (≈ 1.2 to 38.4 µM)
MIC [17]: 0.5 to 16 µg/mL (≈ 1.2 to 38.4 µM)

O=C(O)c1cn(C2CC2)c2cc(N3CCNCC3)c(F)cc2c1=O [CIPROFLOXACIN]
MIC [23]: 3.12 µg/mL (≈ 9.43 µM)

NNC(=O)c1ccncc1 [ISONIAZID]
MIC [2]: 0.2 µg/mL (≈ 1.46 µM)
MIC [23]: 6.25 µg/mL (≈ 45.6 µM)

NC(=O)c1cnccn1 [PYRAZINAMIDE]
MIC [23]: 3.12 µg/mL (≈ 25.4 µM)

CO[C@H]1/C=C/O[C@@]2(C)Oc3c(C)c(O)c4c(O)c(c(/C=N/N5CCN(C)CC5)c(O)c4c3C2=O)NC(=O)/C(C)=C\C=C\[C@H](C)[C@H](O)[C@@H](C)[C@@H](O)[C@@H](C)[C@H](OC(C)=O)[C@@H]1C [RIFAMPIN]
MIC [18]: 0.125 to 0.25 µg/mL (≈ 0.152 to 0.304 µM)
MIC98 [2]: 40 µg/mL (≈ 48.6 µM)

CN[C@@H]1[C@H](O[C@H]2[C@H](O[C@H]3[C@H](O)[C@@H](O)[C@H](N=C(N)N)[C@@H](O)[C@@H]3N=C(N)N)O[C@@H](C)[C@]2(O)C=O)O[C@@H](CO)[C@H](O)[C@H]1O [STREPTOMYCIN]
MIC [2]: 0.7 µg/mL (≈ 1.2 µM)
MIC [23]: 6.25 µg/mL (≈ 10.7 µM)
